Experiment [1] addresses T1, recombinant human cIAP1-BIR3 protein (Homo sapiens, UniProt Q13490).
T1 construct: recombinant human cIAP1-BIR3 protein; purchased Reaction biology APT-11-370
Description: Recombinant human c-IAP1-BIR3 biochemical assay (HTRF, peptide displacement). The note with it: 1.2 nM cIAP1-BIR3, 3 nM AbuRPF-K(5-Fam)-NH2 peptide, read-out: Protein binding IC50 (nM) c-IAP1. The method in brief: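 HTRF peptide displacement: after 1 h compound pre-incubation (max 10 uM, 4-fold dilutions, 10 points) with 1.2 nM protein in HEPES pH 7.5 buffer, 3 nM 5-Fam-labelled AbuRPF-K peptide and Tb-anti-6His were each added for 1 h at room temperature. Inhibition taken from 520/490 nm ratio, fitted four-parameter logistic for IC50.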

The target in experiment [2] is T2, recombinant human cIAP2-BIR3 protein (Homo sapiens, UniProt Q13489).
T2 construct: recombinant human cIAP2-BIR3 protein; purchased Reaction biology APT-11-372
T2 sequence (Q13489 238-349 limits assumed): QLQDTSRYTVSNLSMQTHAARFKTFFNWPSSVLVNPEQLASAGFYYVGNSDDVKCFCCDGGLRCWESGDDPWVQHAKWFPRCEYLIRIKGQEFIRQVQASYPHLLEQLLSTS
Description: Recombinant human c-IAP2-BIR3 biochemical assay (HTRF, peptide displacement). The note with it: 3.7 nM cIAP2-BIR3, 3.7 nM AbuRPF-K(5-Fam)-NH2 peptide, read-out: Protein binding IC50 (nM) c-IAP2. The method in brief: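 HTRF peptide-displacement readout (ex337, em520/490 ratio) after sequential 1 h room-temperature steps: compound with 3.7 nM protein, then 3.7 nM 5-Fam-labelled AbuRPF peptide, then Tb-cryptate anti-6His antibody. Buffer pH 7.5 HEPES with NaCl, Tween-20, DTT; 10-point 4-fold dilutions from 10 uM; four-parameter logistic IC50.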
(TR-FRET usually uses a lanthanide donor and a delayed reading to cut background.)

In experiment [3] the target is T3, recombinant human XIAP-BIR3 protein (Homo sapiens, UniProt P98170).
T3 construct: recombinant human XIAP-BIR3 protein; purchased Reaction biology APT-11-374
T3 sequence (P98170 241-356 limits assumed): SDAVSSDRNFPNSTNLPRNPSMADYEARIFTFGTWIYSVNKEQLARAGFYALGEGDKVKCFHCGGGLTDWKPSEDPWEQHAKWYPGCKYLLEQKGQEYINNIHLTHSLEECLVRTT
The experiment can be described thus: Recombinant human XIAP-BIR3 biochemical assay (HTRF, peptide displacement). The note with it: 3.7 nM XIAP-BIR3, 7.6 nM AbuRPF-K(5-Fam)-NH2 peptide, read-out: Protein binding IC50 (nM) XIAP. The method in brief: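 HTRF peptide displacement with 7.6 nM 5-Fam-labelled AbuRPF peptide, anti-6His Tb donor and 3.7 nM recombinant XIAP-BIR3. Protein and compound (10-point, 4-fold from 10 µM) were preincubated 1 h RT in HEPES pH 7.5 buffer before each addition, each 1 h. IC50 by four-parameter fit of the 520/490 nm ratio.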

T1 sequence (Q13490 253-363 limits assumed): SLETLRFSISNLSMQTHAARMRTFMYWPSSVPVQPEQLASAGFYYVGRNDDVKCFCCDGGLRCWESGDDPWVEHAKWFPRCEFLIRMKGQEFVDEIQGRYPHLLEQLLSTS

By IC50 is commonly meant the concentration at which inhibition is half-maximal. Turning to `CC1COc2ncc(Cc3ccc(F)cc3)cc2N1C(=O)CN1C[C@@H](C)NC[C@@H]1CN1CCOC[C@H]1C` (stereo partly drawn) [Compound 19, 1-(7-(4-fluorobenzyl)-2-methyl-2,3-dihydro-1H-pyrido[2,3-b][1,4]oxazin-1-yl)-2-((2R,5R)-5-methyl-2-(((R)-3-methylmorpholino)methyl)piperazin-1-yl)ethan-1-one], the values for the IC50 in experiment [1], in experiment [2] and in experiment [3] were 0.82 nM, 1.2 nM and 7.7 nM, respectively.
As to `Cc1nc2c(cc1Cc1ccc(F)cc1)N(C(=O)CN1C[C@@H](C)NC[C@@H]1CN1CCOC[C@H]1C)CCO2` [Compound 5, 1-(7-(4-fluorobenzyl)-6-methyl-2,3-dihydro-1H-pyrido[2,3-b][1,4]oxazin-1-yl)-2-((2R,5R)-5-methyl-2-(((R)-3-methylmorpholino)methyl)piperazin-1-yl)ethan-1-one], the IC50 came to 0.7 nM in experiment [1], 1.1 nM in experiment [2] and 18 nM in experiment [3].
In the case of `CCNc1nc2c(cc1Cc1ccc(F)cc1)N(C(=O)CN1C[C@@H](C)NC[C@@H]1CN1[C@H](C)COC[C@H]1C)[C@@H](C)CO2` [Compound 111, 2-((2R,5R)-2-(((3R,5R)-3,5-dimethylmorpholino)methyl)-5-methylpiperazin-1-yl)-1-((S)-6-(ethylamino)-7-(4-fluorobenzyl)-2-methyl-2,3-dihydro-1H-pyrido[2,3-b][1,4]oxazin-1-yl)ethan-1-one], the IC50 in experiment [1] was 0.25 nM; in experiment [2], 0.7 nM; in experiment [3], 13.9 nM.
The like results for `C[C@@H]1CN(CC(=O)N2c3cc(Cc4ccc(F)cc4)c(C(=O)N4CC[C@@H](F)C4)nc3OC[C@@H]2C)[C@@H](CN2[C@H](C)COC[C@H]2C)CN1` [Compound 101, 2-((2R,5R)-2-(((3R,5R)-3,5-dimethylmorpholino)methyl)-5-methylpiperazin-1-yl)-1-((S)-7-(4-fluorobenzyl)-6-((R)-3-fluoropyrrolidine-1-carbonyl)-2-methyl-2,3-dihydro-1H-pyrido[2,3-b][1,4]oxazin-1-yl)ethan-1-one] were, in that order, 0.19 nM, 0.37 nM and 2.5 nM.
As for `COCCOc1nc2c(cc1Cc1ccc(F)cc1)N(C(=O)CN1C[C@@H](C)NC[C@@H]1CN1[C@H](C)COC[C@H]1C)[C@@H](C)CO2` [Compound 89, 2-((2R,5R)-2-(((3R,5R)-3,5-dimethylmorpholino)methyl)-5-methylpiperazin-1-yl)-1-((S)-7-(4-fluorobenzyl)-6-(2-methoxyethoxy)-2-methyl-2,3-dihydro-1H-pyrido[2,3-b][1,4]oxazin-1-yl)ethan-1-one], the IC50 in experiment [1] worked out at 0.17 nM; in experiment [2], 0.36 nM; in experiment [3], 3.1 nM.
In the same order, the values of `CC(C)OC[C@@H]1COCCN1C[C@H]1CN[C@H](C)CN1CC(=O)N1c2cc(Cc3ccc(F)cc3)c(CO)nc2OC[C@@H]1C` [Compound 59] are 0.26 nM, 0.67 nM and 7.8 nM.
Take `C[C@@H]1CN(CC(=O)N2c3cc(Cc4ccc(F)cc4)c(CO)nc3OC[C@@H]2C)[C@@H](CN2C3CCC2COC3)CN1` [Compound 86]: the IC50 in experiment [1] stood at 0.89 nM; in experiment [2], 0.95 nM; in experiment [3], 15 nM.
In the same order, the values of `C[C@@H]1CN(CC(=O)N2c3cc(Cc4ccc(F)cc4)c(CO)nc3OC[C@@H]2C)[C@@H](CN2CCOCC2(C)C)CN1` [Compound 48] are 0.45 nM, 0.79 nM and 12 nM.
In the case of `C[C@@H]1CN(CC(=O)N2c3cc(Cc4ccc(F)cc4)c(OCCO)nc3OC[C@@H]2C)[C@@H](CN2[C@H](C)COC[C@H]2C)CN1` [Compound 107], the IC50 came to 0.23 nM in experiment [1], 0.41 nM in experiment [2] and 4.4 nM in experiment [3].
On to `C[C@@H]1CN(CC(=O)N2c3cc(Cc4ccc(F)cc4)c(C(=O)N(C)C)nc3OC[C@@H]2C)[C@@H](CN2[C@H](C)COC[C@H]2C)CN1` [Example 80, (S)-1-(2-((2R,5R)-2-(((3R,5R)-3,5-dimethylmorpholino)methyl)-5-methylpiperazin-1-yl)acetyl)-7-(4-fluorobenzyl)-N,N,2-trimethyl-2,3-dihydro-1H-pyrido[2,3-b][1,4]oxazine-6-carboxamide], for which the IC50 in experiment [1] came to 0.22 nM; in experiment [2] it was 0.3 nM; in experiment [3] it was 4.9 nM.
Turning to `C[C@@H]1CN(CC(=O)N2c3cc(Cc4ccc(F)cc4)c(C(=O)NC[C@@H]4CCCO4)nc3OC[C@@H]2C)[C@@H](CN2[C@H](C)COC[C@H]2C)CN1` [Compound 93], the IC50 in experiment [1] worked out at 0.19 nM; in experiment [2], 0.46 nM; in experiment [3] it was 4.6 nM.

Source of the values: patent US12583866B2, “Pyrido[2,3-b][1,4]oxazines or tetrahydropyrido[2,3-b][1,4]oxazepines as IAP antagonists” (BEIGENE, LTD., priority 2020, dated 2026).
